According to PubChem BioAssay AID190 (DTP/NCI, 2004):
Where “and” joins values, the source holds several entries; their conditions need not be identical. Equal entries are not always repeated. Toxic doses and inconclusive results are not listed.

System: AKR/Lw mice, AKR lymphoma ip, median survival T/C
Test: NCI In Vivo Anticancer Drug Screen. Data for tumor model Lymphoma AKR (Transplanted) (intraperitoneal) in AKR/Lw mice
Settings: endpoint: median survival time, higher = longer survival
Protocol: The antitumor activity of compounds was measured in mice bearing transplantable tumors. Survival or tumor size were measured and the results are expressed as the measurement made in the treated group (T) divided by the measurement made in the vehicle treated control group (C). The tumor model used in this assay is Lymphoma AKR (Transplanted) (intraperitoneal) in AKR/Lw mice

[1] = dose: 200.0 mg/kg/injection, schedule: Q01DX001 (ip), vehicle: saline
[2] = dose: 400.0 mg/kg/injection, schedule: Q01DX001 (ip), vehicle: saline

`c1ccc2c(c1)OCCOCCOc1ccccc1OCCOCCO2` was tested, and the T/C (dose: 100.0 mg/kg/injection, schedule: Q01DX001 (ip), vehicle: saline) was 107 % of control, the T/C [1] was 123 % of control and the T/C [2] was 103 % of control.
For `OC1(C#CC2(O)c3ccccc3-c3ccccc32)c2ccccc2-c2ccccc21`, the T/C (dose: 100.0 mg/kg/injection, schedule: Q01DX001 (ip), vehicle: Klucel (hydroxypropylcellulose) (HPC)) was 105 % of control, the T/C (dose: 200.0 mg/kg/injection, schedule: Q01DX001 (ip), vehicle: Klucel (hydroxypropylcellulose) (HPC)) was 108 % of control and the T/C (dose: 400.0 mg/kg/injection, schedule: Q01DX001 (ip), vehicle: Klucel (hydroxypropylcellulose) (HPC)) was 102 % of control.
In the case of `CC(=O)N1C(=O)C2(c3ccccc31)c1cccc3c1C(=C1C(=O)OC(=O)C12)C(=O)N3C(C)=O` (configuration not stated), the T/C [1] was 86 % of control and the T/C [2] was 91 % of control.
For `Nc1ncn(C2OC(CO)C(O)C2O)c(=O)n1` (configuration not stated), the T/C (dose: 0.06 mg/kg/injection, schedule: Q04DX008 (ip), vehicle: saline) was 116 % of control, the T/C (dose: 0.12 mg/kg/injection, schedule: Q04DX004 (ip), vehicle: saline) was 109 % of control and the T/C (dose: 0.25 mg/kg/injection, schedule: Q04DX004 (ip), vehicle: saline) was 118 % of control. For the same compound, the T/C (dose: 0.38 mg/kg/injection, schedule: Q04DX003 (ip), vehicle: saline) was 88 % of control, the T/C (dose: 0.5 mg/kg/injection, schedule: Q04DX008 (ip), vehicle: saline) was 180 % of control and the T/C (dose: 0.75 mg/kg/injection, schedule: Q01DX009 (ip), vehicle: water) was 240 % of control. The T/C (dose: 1.0 mg/kg/injection, schedule: Q04DX004 (ip), vehicle: saline) was 152 % of control, the T/C (dose: 1.0 mg/kg/injection, schedule: Q04DX008 (ip), vehicle: saline) was 155 % of control and the T/C (dose: 1.5 mg/kg/injection, schedule: Q01DX009 (ip), vehicle: saline) was 92 % of control. The T/C (dose: 1.5 mg/kg/injection, schedule: Q01DX009 (ip), vehicle: water) was 153 % of control, the T/C (dose: 2.0 mg/kg/injection, schedule: Q04DX004 (ip), vehicle: saline) was 185 % of control and the T/C (dose: 2.0 mg/kg/injection, schedule: Q04DX008 (ip), vehicle: saline) was 159 % of control. For the same compound, the T/C (dose: 2.5 mg/kg/injection, schedule: Q01DX001 (ip), vehicle: saline) was 95 % of control and 114 % of control, the T/C (dose: 2.5 mg/kg/injection, schedule: Q04DX003 (ip), vehicle: saline) was 122 % of control and the T/C (dose: 3.0 mg/kg/injection, schedule: Q01DX009 (ip), vehicle: water) was 265 % of control. The T/C (dose: 3.0 mg/kg/injection, schedule: Q04DX004 (ip), vehicle: saline) was 150 % of control and 252 % of control, the T/C (dose: 3.0 mg/kg/injection, schedule: Q04DX008 (ip), vehicle: saline) was 150 % of control and the T/C (dose: 4.4 mg/kg/injection, schedule: Q04DX004 (ip), vehicle: saline) was 163 % of control and 223 % of control. The T/C (dose: 4.4 mg/kg/injection, schedule: Q04DX008 (ip), vehicle: saline) was 166 % of control and 180 % of control, the T/C (dose: 5.0 mg/kg/injection, schedule: Q04DX003 (ip), vehicle: saline) was 124 % of control and the T/C (dose: 6.0 mg/kg/injection, schedule: Q01DX001 (ip), vehicle: saline) was 92 % of control and 121 % of control. For the same compound, the T/C (dose: 6.0 mg/kg/injection, schedule: Q01DX009 (ip), vehicle: water) was 96 % of control, the T/C (dose: 6.25 mg/kg/injection, schedule: Q01DX001 (ip), vehicle: saline) was 90 % of control and the T/C (dose: 10.0 mg/kg/injection, schedule: Q04DX003 (ip), vehicle: saline) was 124 % of control. For the same compound, the T/C (dose: 10.0 mg/kg/injection, schedule: Q04DX004 (ip), vehicle: saline) was 163 % of control, the T/C (dose: 10.0 mg/kg/injection, schedule: Q04DX008 (ip), vehicle: saline) was 152 % of control and 169 % of control and the T/C (dose: 12.0 mg/kg/injection, schedule: Q01DX001 (ip), vehicle: saline with Tween-80) was 162 % of control. For the same compound, the T/C (dose: 12.0 mg/kg/injection, schedule: Q01DX001 (ip), vehicle: saline) was 92 % of control and 121 % of control, the T/C (dose: 12.0 mg/kg/injection, schedule: Q04DX003 (ip), vehicle: water) was 166 % of control and the T/C (dose: 12.5 mg/kg/injection, schedule: Q01DX001 (ip), vehicle: saline) was 105 % of control and 112 % of control. The T/C (dose: 24.0 mg/kg/injection, schedule: Q01DX001 (ip), vehicle: saline with Tween-80) was 178 % of control, the T/C (dose: 30.0 mg/kg/injection, schedule: Q01DX001 (ip), vehicle: saline) was 164 % of control and the T/C (dose: 40.0 mg/kg/injection, schedule: Q01DX001 (ip), vehicle: saline) was 103 % of control. For the same compound, the T/C (dose: 48.0 mg/kg/injection, schedule: Q01DX001 (ip), vehicle: saline with Tween-80) was 206 % of control, the T/C (dose: 80.0 mg/kg/injection, schedule: Q01DX001 (ip), vehicle: saline) was 119 % of control and the T/C (dose: 96.0 mg/kg/injection, schedule: Q01DX001 (ip), vehicle: saline with Tween-80) was 375 % of control. The T/C (dose: 15.0 micrograms/kg/injection, schedule: Q01DX009 (ip), vehicle: saline) was 113 % of control, the T/C (dose: 30.0 micrograms/kg/injection, schedule: Q01DX009 (ip), vehicle: saline) was 165 % of control and the T/C (dose: 60.0 micrograms/kg/injection, schedule: Q01DX009 (ip), vehicle: saline) was 150 % of control.
